Where only a bound is given, the exact number is not on record here.

For one assay, the system named is genotype 1/2 chimeric cell culture derived HCV (HCVcc). Nature of the assay: Genotype 1/2 chimeric HCVcc assay (nano-luciferase, HCV replication). The class given is cell-based. The settings on record: Anti-HCVcc genotype 1/2 activity; Huh-7.5 cells, 72 h post infection, nano-luciferase. Summed up: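 EC50 (replication, nano-luciferase) and CC50 (viability, cellular ATP) were determined by non-linear regression 72 h after infection with a reporter HCVcc chimera carrying genotype 1a structural and 2a JFH-1 non-structural proteins. Compound was applied to Huh-7.5 cells 2 h before inoculation.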
`CCOC(=O)c1c(NC(=O)NCc2c(C(F)(F)F)sc3c2CCN(C(=O)[C@H](C)N)C3)sc2c1CCCC2` [Compound 328]: the concentration for a half-maximal effect (EC50) is below 100 nM.

The assay is the same for the next values; noted with them: Hepatitis C virus.
In turn, `O=C(NCCCN1CCC(N2CCCCC2)CC1)c1ccc(-c2ccc(F)cc2F)cc1` [Compound 1134] gave a concentration for a half-maximal effect (EC50) of 100 to 1000 nM.
In turn, `O=C(NCCCN1CCC(N2CCCCC2)CC1)c1ccc(Oc2ccc(C(F)(F)F)cc2)cc1` [Compound 1111] returned an EC50 of 100 to 1000 nM.
Compound `O=C(NCCCN1CCC(N2CCCCC2)CC1)c1ccc(-c2ccc(C(F)(F)F)cc2)cn1` [Compound 1102] yielded an EC50 of 100 to 1000 nM.
`O=C(NCCCN1CCC(N2CCCCC2)CC1)c1ccc(-c2ccccc2Cl)cc1` [Compound 1146] came in with an EC50 of 100 to 1000 nM.
On to `O=C(NCCCN1CCC(N2CCCCC2)CC1)c1ccc(-c2ccc(Cl)cc2)cc1` [Compound 1021], for which the EC50 lay in the range of 100 to 1000 nM.
On to `O=C(NCCCN1CCCC1)c1cc2c(s1)CCCC2` [Compound 1004], for which the EC50 was above 10000 nM.
The same measure, in the same setting: under `O=C(NCCCN1CCC(N2CCCCC2)CC1)c1ccc(-c2ccncc2)cc1` [Compound 1024] stands above 10000 nM.
Still for that read-out and setting: under `O=C(CCCN1CCC(N2CCCCC2)CC1)Nc1ccc(-c2ccc(C(F)(F)F)cc2)cc1F` [Compound 1114] stands 100 to 1000 nM; under `O=C(CCCN1CCC(N2CCCCC2)CC1)Nc1ccc(-c2ccc(C(F)(F)F)cc2)c(C(F)(F)F)c1` [Compound 1158], 100 to 1000 nM.
`COc1ccc(-c2ccc(C(=O)NCCCN3CCC(N4CCCCC4)CC3)cc2)c(F)c1` [Compound 1131] registered an EC50 of 100 to 1000 nM.
In the case of `O=C(NCCCN1CCC(N2CCCCC2)CC1)c1cccc(Oc2cccc(C(F)(F)F)c2)c1` [Compound 1107], the EC50 was in the range of 100 to 1000 nM.
With `O=C(CCCN1CCC(N2CCCCC2)CC1)Nc1ccc(Oc2ccc(C(F)(F)F)cc2)cc1` [Compound 1078], the concentration for a half-maximal effect (EC50) is 100 to 1000 nM.
`O=C(NCCCN1CCC(N2CCOCC2)CC1)c1ccc(Oc2ccccc2)cc1` [Compound 1050] displayed an EC50 of 1000 to 10000 nM.
On the same count and under the same terms, under `O=C(NCCCN1CCC(N2CCCCC2)CC1)c1ccc(-c2ccc(C(F)(F)F)cc2)c(C(F)(F)F)c1` [Compound 1105] stands 100 to 1000 nM; under `O=C(NCCCN1CCC(N2CCCCC2)CC1)C1=Cc2sc3c(c2CS1)CCCC3` [Compound 1001], 100 to 1000 nM; under `O=C(NCCCN1CCC(N2CCCCC2)CC1)c1ccc(Oc2cccc(F)c2)cc1` [Compound 1062], above 10000 nM.
`O=C(NCCOCCN1CCC(N2CCCCC2)CC1)c1ccc(Oc2ccccc2)cc1` [Compound 1077] displayed an EC50 of 1000 to 10000 nM.
In turn, `COc1ccccc1Oc1ccc(C(=O)NCCCN2CCC(N3CCCCC3)CC2)cc1` [Compound 1063] registered an EC50 above 10000 nM.
On the same count and under the same terms, under `COc1ccc(-c2ccc(S(=O)(=O)NCCCN3CCC(N4CCCCC4)CC3)cc2)cc1` [Compound 1097] stands 100 to 1000 nM; under `O=S(=O)(NCCCN1CCC(N2CCCCC2)CC1)c1ccc(-c2ccc(C(F)(F)F)cc2)cc1` [Compound 1093], 100 to 1000 nM; under `CN(C)c1ccc(Oc2ccc(C(=O)NCCCN3CCC(N4CCCCC4)CC3)cc2)cc1` [Compound 1110], 100 to 1000 nM.
Same read-out and setting: under `COc1ccccc1-c1ccc(C(=O)NCCCN2CCC(N3CCCCC3)CC2)cc1` [Compound 1017] stands 1000 to 10000 nM; under `O=C(NCCCN1CCC(N2CCCCC2)CC1)c1cccc(-c2ccccc2)c1` [Compound 1025], 1000 to 10000 nM; under `O=C(NCCCN1CCC(N2CCCCC2)CC1)c1ccc(-c2ccc(C(F)(F)F)cc2)nc1` [Compound 1080], 100 to 1000 nM.
`O=C(NCCCN1CCC(N2CCCCC2)CC1)c1ccc(Oc2ccc(Cl)cc2)cc1` [Compound 1109] displayed a concentration for a half-maximal effect (EC50) of 1000 to 10000 nM.
In the case of `O=C(Nc1cccc(N2CCC(N3CCCCC3)CC2)c1)c1ccc(Oc2ccccc2)cc1` [Compound 1049], the EC50 is 100 to 1000 nM.
The compound `O=C(NCCCN1CCC(N2CCCCC2)CC1)c1ccc(N2CCOCC2)cc1` [Compound 1029] came in with an EC50 above 10000 nM.

The assay is the same for the next values; noted with them: Hepatitis C virus, Huh7.5, 72 h.
For `CN1CCN(c2sc3c(c2CNC(=O)Nc2sc4c(c2C(=O)OC(C)(C)C)CCCC4)CCNC3)CC1` [Compound 144], the half-maximal effective concentration (EC50) was 100 to 1000 nM.
As for `CC1CCc2c(sc(NC(=O)NCc3c(Br)sc4c3CCNC4)c2C(=O)OC(C)(C)C)C1` (centres unmarked) [Compound 213], the EC50 is below 100 nM.
`CCc1sc(NC(=O)NCc2c(C(F)(F)F)sc3c2CCN(CCN(C)C)C3)c(C(=O)OC(C)(C)C)c1C` [Compound 356]: the EC50 was below 100 nM.
For `Cc1sc(NC(=O)NCc2c(C(F)(F)F)sc3c2CCN(CCN(C)C)C3)c(C(=O)OC(C)(C)C)c1C` [Compound 367], the EC50 is below 100 nM.
On to `CC(C)(C)OC(=O)c1c(NC(=O)NCc2c(Br)sc3c2CCNC3)sc2c1CCOC2` [Compound 239], for which the EC50 is below 100 nM.
On to `CCOC(=O)c1c(NC(=O)NCc2c(-n3cccc3)sc3c2CCN(CC)C3)sc(C)c1-c1ccc(F)cc1` [Compound 42], for which the EC50 is below 100 nM.
`Cc1sc(NC(=O)NCc2c(-c3cccc(F)c3)sc3c2CCNC3)c(C(=O)OC(C)C)c1C` [Compound 251] registered an EC50 below 100 nM.
In turn, `CC(C)(C)OC(=O)c1c(NC(=O)NCc2c(-c3ccccc3C(F)(F)F)sc3c2CCNC3)sc2c1CCCC2` [Compound 161] displayed an EC50 of 100 to 1000 nM.
Still for that read-out and setting: under `CCOC(=O)c1c(NC(=O)NCc2c(-n3cnc(C)n3)sc3c2CCNC3)sc2c1CCCC2` [Compound 87] stands 100 to 1000 nM; under `CCOC(=O)c1c(NC(=O)NCc2c(-n3cccc3)sc3c2CCN(CC)C3)sc2c1CCC(C)C2` (centres unmarked) [Compound 153], below 100 nM.
On the same count and under the same terms, under `O=C(NCc1c(-n2cccc2)sc2c1CCNC2)Nc1sc2c(c1C(=O)NCC1CCCCC1)CCCC2` [Compound 83] stands 1000 to 10000 nM; under `CC(C)(C)OC(=O)c1c(NC(=O)NCc2c(-c3ccnc(Cl)c3)sc3c2CCNC3)sc2c1CCCC2` [Compound 308], below 100 nM.
Still for that read-out and setting: under `CCOC(=O)c1c(NC(=O)NCc2c(-n3cccc3)sc3c2CCN(CC)C3)sc2c1CCN(C(C)=O)C2` [Compound 47] stands below 100 nM; under `CC(C)(C)OC(=O)c1c(NC(=O)NCc2c(-n3cccc3)sc3c2CCNC3)sc2c1CCOC2` [Compound 319], below 100 nM; under `CCOC(=O)c1c(NC(=O)NCc2c(-n3cccc3)sc3c2CCCN3C(=O)OC(C)(C)C)sc2c1CCCC2` [Compound 100], above 10000 nM.
`COc1cccc(-c2sc3c(c2CNC(=O)Nc2sc4c(c2C(=O)OC(C)(C)C)CCCC4)CCNC3)c1` [Compound 228] displayed an EC50 of 100 to 1000 nM.
On the same count and under the same terms, under `CCN1CCc2c(sc(-n3cccc3)c2CNC(=O)Nc2sc3c(c2C(=O)NCCCCNC(=O)CCCCCN)CCCC3)C1` [Compound 88] stands 1000 to 10000 nM; under `N#Cc1c(NC(=O)NCc2c(-n3cccc3)sc3c2CCCC3)sc2c1CCCC2` [Compound 6], 1000 to 10000 nM; under `CC(C)(C)OC(=O)c1c(NC(=O)NCc2c(-c3cccc(C#N)c3)sc3c2CCNC3)sc2c1CCCC2` [Compound 229], 100 to 1000 nM.
`CCOC(=O)c1c(NC(=O)NCc2c(-c3ccoc3)sc3c2CCNC3)sc2c1CCCC2` [Compound 339]: the EC50 was below 100 nM.
Compound `CC(C)(C)OC(=O)c1c(NC(=O)NCc2c(-n3cccc3)sc3c2CCN(C(C)(C)C)C3)sc2c1CCCC2` [Compound 99] gave a half-maximal effective concentration (EC50) below 100 nM.
Take `CCOC(=O)c1c(NC(=O)NCc2c(C(F)(F)F)sc3c2CCN(C(C)C)C3)sc2c1CCCC2` [Compound 198]: the half-maximal effective concentration (EC50) was below 100 nM.
On the same count and under the same terms, under `CCOC(=O)c1c(NC(=O)NCc2c(Br)sc3c2CCNC3)sc2c1CCC(C)C2` (centres unmarked) [Compound 165] stands below 100 nM.
Still for that read-out and setting: under `CCOC(=O)c1c(NC(=O)NCc2c(-n3cccc3)sc3c2CCN(C)C3)sc2ccccc12` [Compound 66] stands below 100 nM; under `CCOC(=O)c1c(NC(=O)NCc2c(-n3cccc3)sc3c2CCN(S(C)(=O)=O)C3)sc2c1CCCC2` [Compound 21], below 100 nM.
In turn, `CCOC(=O)c1c(NC(=O)NCc2c(-n3cccc3)sc3c2CCN(CC)C3)sc2c1CCOC2` [Compound 41] yielded an EC50 below 100 nM.
`CCOC(=O)c1c(NC(=O)NCc2c(Br)sc3c2CCNC3)sc(C)c1C` [Compound 133] showed a concentration giving a half-maximal response (EC50) below 100 nM.
`CC(C)OC(=O)c1c(NC(=O)NCc2c(-n3cccc3)sc3c2CCNC3)sc2c1CCCC2` [Compound 141] had an EC50 below 100 nM.
With `CCN1CCc2c(sc(-n3cccc3)c2CNC(=O)Nc2sc(C)c(C)c2C(=O)OC(C)C)C1` [Compound 195], the 50% effective concentration (EC50) was below 100 nM.
Compound `CCOC(=O)c1c(NC(=O)C(=O)NCc2c(-n3cccc3)sc3c2CCN(CC)C3)sc2c1CCCC2` [Compound 78] yielded a half-maximal effective concentration (EC50) below 100 nM.
For `CCOC(=O)c1c(N/C(=N/C#N)NCc2c(-n3cccc3)sc3c2CCN(CC)C3)sc2c1CCCC2` [Compound 77], the EC50 is above 10000 nM.
For the compound `Cc1sc(NC(=O)NCc2c(Br)sc3c2CCNC3)c(C(=O)OC(C)(C)C)c1C` [Compound 138], the EC50 was below 100 nM.
On to `CCOC(=O)c1c(NC(=O)NCc2csc(CN(C)C)c2C)sc2c1CCCC2` [Compound 188], for which the EC50 is below 100 nM.
Same read-out and setting: under `CCOC(=O)c1c(NC(=O)OCc2c(-n3cccc3)sc3c2CCN(CC)C3)sc2c1CCCC2` [Compound 94] stands below 100 nM.
For `CCOC(=O)c1c(NC(=O)NCc2c(-n3cccc3)sc3c2CCN(CC)C3)sc2c1C(C)CCC2` (centres unmarked) [Compound 151], the half-maximal effective concentration (EC50) was below 100 nM.
As for `CCN1CCc2c(sc(Br)c2CNC(=O)Nc2sc3c(c2C(=O)OC(C)(C)C)CCCCC3)C1` [Compound 280], the EC50 is below 100 nM.
As for `Cc1sc(NC(=O)NCc2c(-c3ccc(Cl)cc3)sc3c2CCNC3)c(C(=O)OC(C)(C)C)c1C` [Compound 369], the EC50 is below 100 nM.
`CCOC(=O)c1c(NC(=O)NCc2c(-n3c(C)ccc3C)sc3c2CCN(CC)C3)sc2c1CCCC2` [Compound 51] returned a half-maximal effective concentration (EC50) below 100 nM.
The compound `Cc1ccccc1-c1sc2c(c1CNC(=O)Nc1sc3c(c1C(=O)OC(C)(C)C)CCCC3)CCNC2` [Compound 250] came in with an EC50 of 100 to 1000 nM.
`CCN1CCc2c(sc(Br)c2CNC(=O)Nc2sc3c(c2C(=O)OC(C)(C)C)CCC3)C1` [Compound 300] gave an EC50 below 100 nM.

(Values after patent US9809602B2, “Compounds for treating viral infections” (INSTITUT PASTEUR KOREA, priority 2014, dated 2017).)
